#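 Five compound concentrations were applied to cells in 96-well plates for 48 hours; endpoints were derived by simple linear interpolation of the resulting dose-response curve. Abbreviation: GI50, concentration required for 50% inhibition of growth. At the TGI there is no net growth.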
# Experiments:
# Test in all cases: growth of human tumour cells (NCI), 48 h
# [1] = system: MOLT-4 leukemia
# [2] = system: SK-MEL-5 melanoma
# [3] = system: KM12 colon
# [4] = system: SN12C renal
# [5] = system: HCC-2998 colon
# [6] = system: HOP-62 NSCLC
# [7] = system: BT-549 breast
# [8] = system: MDA-MB-435
# [9] = system: NCI/ADR-RES ovarian
# [10] = system: UACC-257 melanoma
# [11] = system: MDA-MB-468 breast
# [12] = system: SF-268 CNS
# [13] = system: HS 578T breast
# [14] = system: EKVX NSCLC
# [15] = system: SK-MEL-28 melanoma
# [16] = system: NCI-H23 lung
# [17] = system: ACHN renal
# [18] = system: MCF7 breast
# [19] = system: SNB-19 CNS
# [20] = system: LOX IMVI melanoma
# [21] = system: NCI-H522 lung
# [22] = system: TK-10 renal
# [23] = system: SF-295 CNS
# [24] = system: MALME-3M melanoma
# [25] = system: MDA-MB-231 breast
# [26] = system: HL-60(TB) leukemia
# [27] = system: IGROV1 ovarian
# [28] = system: RXF 393 renal
# [29] = system: SR leukemia
# [30] = system: UACC-62 melanoma
smiles,measurement,setting,value
O=C(CN1CCN(c2ncnc3c2cnn3-c2ccccc2)CC1)Nc1nncs1,GI50,[1],4.08 µM
same,TGI,[1],31.3 µM
same,GI50,[2],10.2 µM
same,TGI,[2],21.9 µM
same,GI50,[3],4.46 µM
same,TGI,[3],15.9 µM
same,GI50,[4],1.94 µM
same,TGI,[4],5.06 µM
same,GI50,[5],13.6 µM
same,TGI,[5],26.4 µM
same,GI50,[6],1.62 µM
same,TGI,[6],3.29 µM
same,GI50,[7],1.55 µM
same,TGI,[7],3.02 µM
same,GI50,[8],13.6 µM
same,TGI,[8],27.5 µM
same,GI50,[9],1.77 µM
same,TGI,[9],3.69 µM
same,GI50,[10],14.1 µM
same,TGI,[10],28.1 µM
same,GI50,[11],3.05 µM
same,TGI,[11],13.7 µM
same,GI50,[12],4.79 µM
same,TGI,[12],19.3 µM
same,GI50,[13],12.4 µM
same,TGI,[13],63 µM
same,GI50,[14],2.9 µM
same,TGI,[14],11.1 µM
same,GI50,[15],13.9 µM
same,TGI,[15],26.9 µM
same,GI50,[16],1.74 µM
same,TGI,[16],3.57 µM
same,GI50,[17],1.79 µM
same,TGI,[17],3.18 µM
same,GI50,[18],4.32 µM
same,TGI,[18],18 µM
same,GI50,[19],12.2 µM
same,TGI,[19],24.6 µM
same,GI50,[20],1.49 µM
same,TGI,[20],2.81 µM
same,GI50,[21],1.62 µM
same,TGI,[21],3.09 µM
same,GI50,[22],3.09 µM
same,TGI,[22],6.14 µM
same,GI50,[23],10.3 µM
same,TGI,[23],22.3 µM
same,GI50,[24],1.69 µM
same,TGI,[24],3.3 µM
same,GI50,[25],1.78 µM
same,TGI,[25],3.87 µM
same,GI50,[26],10.4 µM
same,TGI,[26],39.5 µM
same,GI50,[27],2.68 µM
same,TGI,[27],7.65 µM
same,GI50,[28],1.68 µM
same,TGI,[28],3.31 µM
same,GI50,[29],2.11 µM
same,TGI,[29],5.26 µM
same,GI50,[30],4.97 µM
